How the values were obtained:
Liver microsomes [1] = conditions: human, 0.5 h, 2 µM
[2] = mouse, microsomes, 0.5 h, 2 µM
in vitro [3] = conditions: human, liver microsomes
in vitro [4] = conditions: mouse, liver microsomes
in vitro [5] = conditions: mouse, liver microsomes; remark: listed apart in the source
in vitro [6] = conditions: human, liver microsomes; remark: listed apart in the source
[7] = Oral bioavailability in rat; assay type: ADME, organism-based; conditions: in vivo
Liver microsomes [8] = conditions: human, 0.5 h, 1 µM
[9] = Half life in rat; assay type: ADME, organism-based; conditions: in vivo
[10] = AUC in rat; assay type: ADME, organism-based; conditions: plasma
[11] = mouse, microsomes, 0.5 h, 1 µM
[12] = Clearance in rat; assay type: ADME, organism-based; conditions: in vivo

Structure (SMILES): O=S(=O)(c1ccc(Cl)cc1)N1C2Cc3[nH]ncc3C1CC(/C=C\Cl)C2 (stereo unspecified)
- Stability (Liver microsomes [1]): Not Active
- Stability [2]: Not Active
- remaining at 0.5 h, 1 µM (in vitro [3]; Stability): 14%
- remaining at 0.5 h, 1 µM (in vitro [4]; Stability): 3%

Structure (SMILES): N#CC1CC2Cc3[nH]ncc3C(C1)N2S(=O)(=O)c1ccc(Cl)cc1 (stereo in doubt; form 2)
- Stability (Liver microsomes [1]): Not Active
- Stability [2]: Not Active
- remaining at 0.5 h, 1 µM (in vitro [3]; Stability): 68%
- remaining at 0.5 h, 1 µM (in vitro [4]; Stability): 86%

Structure (SMILES): O=S(=O)(c1ccc(Cl)cc1)N1C2Cc3[nH]ncc3C1CC(/C=C/C(F)(F)F)C2 (stereo unspecified)
- remaining at 0.5 h, 2 µM (in vitro [5]; Stability): 39%
- remaining at 0.5 h, 1 µM (in vitro [3]; Stability): 6%
- remaining at 0.5 h, 1 µM (in vitro [4]; Stability): 36%
- remaining at 0.5 h, 2 µM (in vitro [6]; Stability): 2%

Structure (SMILES): O=S(=O)(c1ccc(Cl)cc1)N1C2Cc3[nH]ncc3C1CC(/C=C\C(F)(F)F)C2 (stereo unspecified)
- Stability (Liver microsomes [1]): Not Active
- Stability [2]: Not Active
- remaining at 0.5 h, 1 µM (in vitro [3]; Stability): 38%
- remaining at 0.5 h, 1 µM (in vitro [4]; Stability): 17%

Structure (SMILES): N#CC1CC2Cc3[nH]ncc3C(C1)N2S(=O)(=O)c1ccc(Cl)cc1 (stereo in doubt)
- bioavailability [7]: 21%
- Stability (Liver microsomes [8]): 70%
- half-life [9]: 1.02 h
- remaining at 0.5 h, 2 µM (in vitro [5]; Stability): 81%
- AUC [10]: 3.4 µM·h
- Stability [11]: 74%
- clearance [12]: 28.4 mL/min/kg
- remaining at 0.5 h, 2 µM (in vitro [6]; Stability): 45%

Structure (SMILES): N#CC1CC2Cc3[nH]ncc3C(C1)N2S(=O)(=O)c1ccc(Cl)cc1 (stereo in doubt; form 1)
- Stability (Liver microsomes [8]): 72%
- Stability [11]: 80%

Structure (SMILES): Cl.O=S(=O)(c1ccc(Cl)cc1)N1C2COCC1c1cn[nH]c1C2 (stereo unspecified)
- Stability (Liver microsomes [8]): 81%
- Stability (Liver microsomes [1]): 71%
- Stability [2]: 94%
- Stability [11]: 78%

Structure (SMILES): O=S(=O)(c1ccc(Cl)cc1)N1C2CCCC1c1cn[nH]c1C2 (stereo unspecified)
- bioavailability [7]: 2%
- half-life [9]: 0.4 h
- remaining at 0.5 h, 2 µM (in vitro [5]; Stability): 5%
- AUC [10]: 0.16 µM·h
- remaining at 0.5 h, 1 µM (in vitro [3]; Stability): 48%
- remaining at 0.5 h, 1 µM (in vitro [4]; Stability): 15%
- clearance [12]: 38.9 mL/min/kg
- remaining at 0.5 h, 2 µM (in vitro [6]; Stability): 0%

Structure (SMILES): CS(=O)(=O)N1CC2Cc3[nH]ncc3C(C1)N2S(=O)(=O)c1ccc(Cl)cc1 (stereo unspecified)
- remaining at 0.5 h, 2 µM (in vitro [5]): 96%
- remaining at 0.5 h, 1 µM (in vitro [3]): 84%
- remaining at 0.5 h, 1 µM (in vitro [4]): 80%
- remaining at 0.5 h, 2 µM (in vitro [6]): 55%

Structure (SMILES): CN(C)C(=O)N1CC2Cc3[nH]ncc3C(C1)N2S(=O)(=O)c1ccc(Cl)cc1 (stereo unspecified)
- Stability (Liver microsomes [1]): Not Active
- Stability [2]: Not Active
- remaining at 0.5 h, 1 µM (in vitro [3]; Stability): 86%
- remaining at 0.5 h, 1 µM (in vitro [4]; Stability): 56%

Structure (SMILES): O=S(=O)(c1ccc(Cl)cc1)N1C2COCC1c1cn[nH]c1C2 (stereo in doubt; 32)
- Stability (Liver microsomes [8]): 100%
- remaining at 0.5 h, 2 µM (in vitro [5]; Stability): 93%
- remaining at 0.5 h, 1 µM (in vitro [4]; Stability): 75%
- remaining at 0.5 h, 2 µM (in vitro [6]; Stability): 71%

Structure (SMILES): O=C(O)C1CC2Cc3[nH]ncc3C(C1)N2S(=O)(=O)c1ccc(Cl)cc1 (stereo unspecified)
- Stability (Liver microsomes [8]): Not Active
- Stability (Liver microsomes [1]): Not Active
- Stability [2]: Not Active
- Stability [11]: Not Active

Structure (SMILES): O=S(=O)(c1ccc(Cl)cc1)N1C2Cc3[nH]ncc3C1CC(/C=C/Cl)C2 (stereo unspecified)
- remaining at 0.5 h, 2 µM (in vitro [5]; Stability): 37%
- remaining at 0.5 h, 1 µM (in vitro [3]; Stability): 6%
- remaining at 0.5 h, 1 µM (in vitro [4]; Stability): 7%
- remaining at 0.5 h, 2 µM (in vitro [6]; Stability): 1%

Structure (SMILES): O=S(=O)(c1ccc(Cl)cc1)N1C2COCC1c1cn[nH]c1C2 (stereo in doubt)
- bioavailability [7]: 19%
- Stability (Liver microsomes [8]): 78%
- half-life [9]: 1.15 h
- Stability (Liver microsomes [1]): 86%
- Stability [2]: 100%
- AUC [10]: 2.9 µM·h
- Stability [11]: 80%
- clearance [12]: 31.2 mL/min/kg
